{"source": "patent US8193235B2", "about": "“Compositions and methods for establishing and maintaining stem cells in an undifferentiated state” (University of Kansas, priority 2009, dated 2012)", "key": {"[1]": {"system": "E14 ES cells", "assay": "ES cell culture in the absence of LIF (undifferentiated state, marker expression)", "type": "cell-based, mouse", "method": "E14 ES Cell Cultures. Cells were grown in ES-IMDM media (Lonza, Walkersville, Md.) in a feeder-free condition. ES-IMDM was supplemented with 15% serum, 10^5 U/100 ml of LIF (ESGRO, Millipore, Calif.) and 0.0124% monothioglycerol (MTG; Sigma Aldrich). Cells were grown for 3-5 days with change of medium every day. For inducing differentiation in monolayer culture and to determine the effect of Gö6983 in preventing differentiation, E14 cells were cultured on gelatin-coated plastics for 8 days without LIF. Details of experiments performed at clonal-density are described herein. To maintain E14 cells with Gö6983, serum supplemented ES-IMDM was used in the presence of 5 μM Gö6983 and was passed after every 3-5 days. For all assays involving elucidation of different signaling mechanism responsible for maintenance of pluripotency, cells from a ˜70% confluent ES culture plate were washed two times with 1× phosphate-buffered saline (PBS), trypsinized and plated on a 6-well tissue culture plate and treated with or without LIF or Gö6983 or different inhibitors for ˜10 hours followed by preparation of protein lysates and RNA. The PKCζ knocked-down E14 cells that were generated in this study were maintained in serum supplemented ES-IMDM on gelatin-coated plates in the absence of Gö6983 or LIF or any other inhibitor and passed after 3-5 days. For the experiments herein, cells were continuously cultured at least for 5 consecutive passages (>18 days) on gelatin-coated plates without significant differentiation.\nQuantitative RT-PCR Analysis. RNA was extracted from different cell samples with TRIZOL reagent (Invitrogen). cDNA was prepared by annealing RNA (1 μg) with 250 ng of a 5:1 mixture of random and oligo(dT) primers heated at 68° C. for 10 minutes. This was followed by incubation with Moloney murine leukemia virus reverse transcriptase (50 units) (Invitrogen, Carlsbad, Calif.) combined with 10 mM DTT, RNasin (PROMEGA, Madison, Wis.), and 0.5 mM dNTPs at 42° C. for 1 hour. Reactions were diluted to a final volume of 100 μl and heat inactivated at 97° C. for 5 minutes. Twenty μl PCR reactions contained 2 μl cDNA, 10 μl SYBR Green Master Mix (Applied Biosystems, Foster City, Calif.) and corresponding primer sets. Relative expression levels were determined from a standard curve of serial dilutions of proliferating ES cell cDNA samples and were normalized to the expression of glyceraldehyde-3-phosphate dehydrogenase (GAPDH). At least three independent experiments were done for each set of data.\nImmunostaining. Immunostaining of Oct4, and Nanog expression was performed using standard protocols. Briefly, ES cells were fixed in 4% paraformaldehyde/4% sucrose, permeabilized with 0.1% TRITON X 100 (Sigma). Cells were blocked by adding 1% fish gelatin (Sigma, St. Louis, Mo.) and incubated overnight at 4° C. with 200 μl of primary antibodies. Fluorescent-conjugated secondary antibodies (ALEXA FLUOR 488, and ALEXA FLUOR 568, Molecular Probes, Invitrogen) were used at 1:250 dilutions to visualize cells. Images were captured using a LEICA fluorescence microscope."}, "[2]": {"system": "E14 ES cells", "assay": "Cell Proliferation Assay", "type": "cell-based", "conditions": "Mus musculus", "method": "Cell Proliferation Assay. E14 ES cells were seeded and incubated for 2 days in the presence of different concentrations of Gö6983. Cell proliferation was measured with […] 96 AQUEOUS One Solution Reagent (Promega, Madison, Wis.) following the manufacturer's protocol."}, "[3]": {"system": "C57BL/6 blastocysts", "assay": "Chimera generation and germ-line transmission by blastocyst injection", "type": "in vivo, mouse", "method": "Chimera Generation and Germ-Line Transmission. Prepubertal (3 weeks of age) donor C57BL/6 female mice (Jackson Laboratory, Bar Harbor, Me.) were superovulated, mated overnight to intact C57BL/6 stud males and euthanized by cervical dislocation on day 3.5. Uteri were collected after euthanasia and flushed with M2 medium (Millipore, Bilerica, Mass.) for the collection of blastocysts. Eight to ten ES or iPS cells were injected into the blastocoel of each blastocyst. After injection, the blastocysts were surgically transferred into recipient females that were pseudopregnant by mating with vasectomized males. Recipient females carried the pups to term and nursed until weaning at three weeks. High-level chimeras, generated from newly derived ES cells, were mated with C57BL/6 adult mice to test for germline transmission."}, "[4]": {"system": "canonical Wnt reporter (TOPFLASH reporter)", "assay": "TOPFLASH luciferase reporter assay", "type": "cell-based, mouse", "conditions": "mESCs", "method": "TOPFLASH Luciferase Reporter Assay. […] were transfected with 0.5 μg of SUPER8XTOPFlash and 20 ng of phRL Renilla luciferase vectors per well using LIPOFECTAMINE (Invitrogen). Transfected cells were cultured with or without LIF, or Wnt3a-conditioned medium, or with Gö6983, and luciferase activity was measured after 48 hours of transfection using Dual-Luciferase Reporter Assay System (Promega)."}, "[5]": {"system": "Ezh2−/− ES cells", "assay": "Ezh2−/− ES cells on collagen-IV without LIF", "type": "cell-based, mouse", "conditions": "absence of LIF", "method": "Ezh2^−/− ES Cells. Ezh2^−/− cells, passage 6, were maintained on irradiated MEF feeders in standard ES medium (DMEM; Dulbecco's modified Eagle's medium) supplemented with 15% heat-inactivated fetal calf serum, 0.1 mM 2-mercaptoethanol, 2 mM L-glutamine, 0.1 mM non-essential amino acid, 1% of nucleoside mix (100× stock, Sigma), 1000 U/mi LIF and 50 U/ml Penicillin/Streptomycin. For experiments involving Gö6983, Ezh2^−/− cells were passed once without feeders and used for subsequent analysis. For experiments on collagen IV, ˜3×10^4 Ezh2^−/− cells were plated in each well of a six-well tissue culture plate in the presence or absence of LIF and Gö6983."}}, "note": "“Also recorded” adds a separate entry of the source.", "data": [{"smiles": "COc1ccc2c(c1)c(C1=C(c3c[nH]c4ccccc34)C(=O)NC1=O)cn2CCCN(C)C", "note": "[Gö6983, 3-[1-[3-(dimethylamino)propyl]5-methoxy-1H-indol-3-yl]-4-(1H-indol-3-yl)-1H-pyrrole-2,5-dione]", "values": [{"measurement": "ES cell differentiation at 2.5 μM", "setting": "[1]; 2.5 μM, without LIF", "value": "almost completely inhibited"}, {"measurement": "concentration that efficiently maintained undifferentiated ES cell colony / inhibits mouse ES cell differentiation", "setting": "[1]; concentration profile analysis, absence of LIF", "value": "≥ 2.5", "unit": "µM"}, {"measurement": "ES cell differentiation in the absence of LIF", "setting": "[1]; mouse ES cells, without LIF", "value": "did not differentiate and maintained their undifferentiated colony morphology"}, {"measurement": "induction of developmental genes required for lineage commitment", "setting": "[1]; quantitative RT-PCR, FIG. 1B", "value": "did not occur"}, {"measurement": "expression of pluripotency markers Oct4, Nanog, Sox2 and Rex-1", "setting": "[1]; quantitative RT-PCR, without LIF, FIG. 1A", "value": "maintained the expression of pluripotency markers"}, {"measurement": "ES cell pluripotency in media with different batches of fetal bovine serum", "setting": "[1]; serum from different sources", "value": "maintained ES cell pluripotency in all culture media irrespective of serum source"}, {"measurement": "inhibition at 2.5 µM", "setting": "[2]", "value": "~30", "unit": "%"}, {"measurement": "chimera generation from E14 ES cells maintained with Gö6983", "setting": "[3]; 7 passages with Gö6983, injected into C57Bl/6 blastocysts", "value": "yielded multiple chimeric mice; also recorded: efficiently generated chimeras"}, {"measurement": "Chimera #", "setting": "[3]; E14 cells, 59 blastocysts injected, 7 pups", "value": 5}, {"measurement": "# of Chimera showing Germline Transmission", "setting": "[3]; ES 1 (line derived with Gö6983)", "value": 3}, {"measurement": "Chimera #", "setting": "[3]; ES 1 (line derived with Gö6983), 45 blastocysts injected, 15 pups", "value": 5}, {"measurement": "# of Chimera showing Germline Transmission", "setting": "[3]; ES 2 (line derived with Gö6983)", "value": 2}, {"measurement": "Chimera #", "setting": "[3]; ES 2 (line derived with Gö6983), 38 blastocysts injected, 6 pups", "value": 2}, {"measurement": "Chimera #", "setting": "[3]; iPSC 1, 18 blastocysts injected, 5 pups", "value": 3}, {"measurement": "Chimera #", "setting": "[3]; iPSC 2, 30 blastocysts injected, 6 pups", "value": 3}, {"measurement": "chimera generation from Gö6983-derived iPS cells", "setting": "[3]; injected into blastocysts", "value": "generate chimeric mice"}, {"measurement": "chimera and germline contribution of Gö6983-derived ES cells", "setting": "[3]; two lines after six passages, chimeras crossed with C57BL/6 adults", "value": "successfully generated adult chimera, which produced germline offsprings"}, {"measurement": "TOPFLASH reporter activity", "setting": "[4]", "value": "did not induce"}, {"measurement": "collagen-IV-induced Ezh2−/− cell differentiation", "setting": "[5]", "value": "completely inhibited"}, {"measurement": "marker expression in Ezh2−/− cells on collagen-IV", "setting": "[5]", "value": "maintained expression of pluripotency markers without the induction of developmental regulator genes"}]}]}
